“Also recorded” adds a separate entry of the source.
What was measured:
[1] = system: hair follicles on the dorsal skin at the refractory telogen phase; test: mouse model of hair regeneration (sample applied on dorsal skin at refractory telogen phase); assay type: in vivo; settings: high dosage level (2000 μM) administrated on the dorsal skin once a day for 10 days; female C57BL/6 mice; negative = no hair growth
Source text: The experimental model of the present disclosure is derived from the mouse model of the hair regeneration, which is studied by Dr. Chuong in University of Southern California.
The mouse model adopts female C57BL/6 mice (about 8 weeks).
In accordance with the reports (Muller-Rover et al., 2001; Plikus et al., 2009), after the hair removal on the dorsal skin of the female C57BL/6 mice by wax or uprooting, the hair follicles enter the anagen phase on the seventh day from hair removal. At this time, the dorsal hair will regenerate during the anagen phase, which continues fourteen days. Such step synchronizes all follicles on the dorsal skin.
The hair follicles on the dorsal skin enter the refractory telogen phase through the anagen phase. The refractory telogen phase continues twenty eight days. In the present disclosure, the sample solution is applied on the dorsal skin, where the hair follicle stays at the refractory telogen phase, to observe whether the peptides are beneficial to hair growth.
In some embodiments shown in FIG. 1, after the hair removal of the dorsal skin, the new growth hair is removed again at twenty first day after the first hair removal. […] The sample solution is applied on each of the sections for 10 days. The administration of the sample solution includes, but not limited to, the injection (50 μl) and the coating (10 μl). In addition, the dosage of the sample solution includes, but not limited to, the high dosage level (2000 μM) and the low dosage level (200 μM).
In order to avoid experimental error due to manual operation, a positive control and a negative control are predetermined on two sections. […] The second section 2 is coated with high dosage level of HGP or the pharmaceutical composition for 10 days (once a day). The third section 3 is coated with low dosage level of HGP or the pharmaceutical composition for 10 days (once a day). The fourth section 4 is coated with 100% alcohol for 10 days (once a day). The fourth section 4 is regarded as the negative control. The fifth section 5 is continuously injected with the high dosage of HGP or pharmaceutical composition for 10 days (once a day). The sixth section 6 is continuously injected with the low dosage of HGP or pharmaceutical composition for 10 days (once a day). The HGP prepared for the sections is the same amino acid sequence.
HGP or pharmaceutical composition having the same as referred at Table 1 is implemented through the above-mentioned process and then the hair regeneration condition is recorded every day. Since the period of the refractory telogen phase is 28 days, it is regarded as a negative result that no hair regeneration is observed at thirtieth day after the administration of the sample solution.
The number x of the hair growth in the table 3 means that the hair regeneration condition is observed at the x'th day after the high dosage level is administrated on the dorsal skin. For instance, the number (x=5) means that the hair growth is observed at the fifth day. Furthermore, the symbol NA represents the need for further analysis. […] In addition, the “negative” represents no hair growth by using the peptide in accordance with the experimental number.

β-catenin [2] = test: TCF reporter assay in Human Hair Follicular Keratinocytes (HHFK) cell line; assay type: cell-based; settings: 200 μM peptide, vs untreated CTL, listed as SEQ ID No: 1 peptide
Description: (§1) FIG. 4 illustrates a schematic view of a TCF reporter assay in Human Hair Follicular Keratinocytes (HHFK) cell line. TOP represents that the reporter gene has a functional binding site where β-catenin is bound. […] CTL represents that HHFK cell line is not treated with any stimulant. iPept-2 means that HHFK cell line is treated with the SEQ ID No: 1 peptide.
(§2) The SEQ ID No. 1 peptide is treated in Human Hair Follicular Keratinocytes (HHFK) and HaCaT Keratinocyte to study the hair growth mechanism induced by the SEQ ID No. 1 peptide.
(§3) In the present disclosure, HHFK and HaCaT Keratinocyte are used as cell models for realizing the mechanism. Reporter assay is used as bioactivity assays to identify how the SEQ ID No. 1 peptide improves hair growth.

β-catenin [3] = test: TCF reporter assay in HaCaT Keratinocyte cell line; assay type: cell-based; settings: 200 μM peptide; HaCaT Keratinocytes; vs untreated CTL; listed as SEQ ID No: 1 peptide
Description: as §1, with “3” for “4”, “HaCaT Keratinocyte” for “Human Hair Follicular Keratinocytes (HHFK)”, “HaCaT Keratinocytes are” for “HHFK cell line is”
as §2, §3

Row | Substance | Number x (hair regeneration condition is observed at the x'th day after administration) [1] | activity of β-catenin (relative luciferase activity, TOP/FOP reporter) (β-catenin [2]) | activity of β-catenin (relative luciferase activity, TOP/FOP reporter) (β-catenin [3])
1 | LAQAGSVRSSSR (a designed peptide according to experiments) [P34] | negative | – | –
2 | SPLAQAVRSSSRTPS (a designed peptide according to experiments) [P4] | 22 days | – | –
3 | SPLAQ (a designed peptide according to experiments) [P3] | 22 days | – | –
4 | SPLAQAVRGSFG (a designed peptide according to experiments) [P21] | negative | – | –
5 | SPLAQAVRS (a designed peptide according to experiments) [P8] | negative | – | –
6 | SPLAQAV (a designed peptide according to experiments) [P10] | 22 days | – | –
7 | PLAQAVRSSSR (a designed peptide according to experiments) [P12] | 22 days | – | –
8 | SPLAQAVRSS (a designed peptide according to experiments) [P7] | 22 days | – | –
9 | SPLAQAGSFGSF (a designed peptide according to experiments) [P23] | negative | – | –
10 | AQAVRSSSR (a designed peptide according to experiments) [P14] | 22 days | – | –
11 | SPLAQAVRSSGS (a designed peptide according to experiments) [P19] | negative | – | –
12 | SPLAQAVGSFGS (a designed peptide according to experiments) [P22] | negative | – | –
13 | LAQAVRSSSR (a designed peptide according to experiments) [P13] | 22 days | – | –
14 | RSSSR (a designed peptide according to experiments) [P5] | 22 days | – | –
15 | SPLAQAVRSSSG [P18] | negative | – | –
16 | AQAGSFVRSSSR (a designed peptide according to experiments) [P35] | negative | – | –
17 | GSFGSAVRSSSR (a designed peptide according to experiments) [P31] | 22 days | – | –
18 | GSFGQAVRSSSR (a designed peptide according to experiments) [P30] | negative | – | –
19 | GSFAQAVRSSSR (a designed peptide according to experiments) [P29] | 22 days | – | –

Row | Substance | Number x (hair regeneration condition is observed at the x'th day after administration) [1] | activity of β-catenin (relative luciferase activity, TOP/FOP reporter) (β-catenin [2]) | activity of β-catenin (relative luciferase activity, TOP/FOP reporter) (β-catenin [3])
20 | QAVRSSSR (a designed peptide according to experiments) [P15] | negative | – | –
21 | SPLAQA (a designed peptide according to experiments) [P11] | 22 days | – | –
22 | SPLAQAVRSSSRT (a designed peptide according to experiments) [P26] | negative | – | –
23 | SPLAQAVR (a designed peptide according to experiments) [P9] | 19 days | – | –
24 | QAGSFGFRSSSR (a designed peptide according to experiments) [P36] | negative | – | –
25 | SPLAQAVRSGSF (a designed peptide according to experiments) [P20] | negative | – | –
26 | SPLAQFRSSSRG (a designed peptide according to experiments) [P33] | negative | – | –
27 | SPLAQGSFGSFG [P24] | negative | – | –
28 | SPLAQAVRSSSRTP (a designed peptide according to experiments) [P25] | negative | – | –
29 | AVRSSSR (a designed peptide according to experiments) [P16] | negative | – | –
30 | VRSSS (a designed peptide according to experiments) [P2] | negative | – | –
31 | GSLAQAVRSSSR (a designed peptide according to experiments) [P28] | negative | – | –
32 | SPLAQAVRSSSR (a designed peptide according to experiments) [P1] | 22 days | increase the activity of β-catenin; also recorded: enhance activity of β-catenin | increase the activity of β-catenin; also recorded: enhance activity of β-catenin
33 | GPLAQAVRSSSR (a designed peptide according to experiments) [P27] | 22 days | – | –
34 | GSFGSFVRSSSR (a designed peptide according to experiments) [P32] | negative | – | –
35 | VRSSSR (a designed peptide according to experiments) [P17] | negative | – | –
36 | AGSFFSGRSSSR (a designed peptide according to experiments) [P37] | 22 days | – | –
37 | SPLAQAVRSSS (a designed peptide according to experiments) [P6] | negative | – | –

— patent US9597370B2, “Method for promoting hair growth” (INDUSTRIAL TECHNOLOGY RESEARCH INSTITUTE, priority 2013, dated 2017)
